The text below walks through data of ChEMBL document CHEMBL1141706 (Bioorg Med Chem Lett, 2008).

A word on the Ki: it is the dissociation constant of the complex between target and ligand, obtained from inhibition or displacement. Read a low Ki as a stronger hold on the target.

5-hydroxytryptamine receptor 2A, sequence (P28223 whole entry): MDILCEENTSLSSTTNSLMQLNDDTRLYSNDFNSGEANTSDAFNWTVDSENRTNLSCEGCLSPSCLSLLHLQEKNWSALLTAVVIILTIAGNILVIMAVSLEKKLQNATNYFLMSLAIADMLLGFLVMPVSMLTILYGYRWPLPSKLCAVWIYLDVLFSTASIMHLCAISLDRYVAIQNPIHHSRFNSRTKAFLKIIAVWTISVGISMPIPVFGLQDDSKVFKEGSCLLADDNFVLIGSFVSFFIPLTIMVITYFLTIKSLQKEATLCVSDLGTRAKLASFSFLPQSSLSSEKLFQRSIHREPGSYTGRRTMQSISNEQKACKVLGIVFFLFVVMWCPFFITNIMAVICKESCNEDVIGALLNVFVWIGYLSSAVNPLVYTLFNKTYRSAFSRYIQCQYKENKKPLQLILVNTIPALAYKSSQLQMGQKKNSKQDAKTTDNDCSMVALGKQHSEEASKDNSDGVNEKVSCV

This test concerns the target 5-hydroxytryptamine receptor 2A (Homo sapiens, UniProt P28223). Kind of test: Displacement of [3H]ketanserin from human 5HT2A receptor. (In general: In a radioligand displacement assay an active substance lowers the binding of a labelled ligand.)
`COc1cccc2c1Cc1ccccc1C2CN` (centres undefined) showed an inhibition constant Ki of 0.124 µM. In other words, the sub-micromolar range. `COc1cccc2c1C(CN)c1ccccc1C2` (centres undefined) came in with a Ki of 1.16 µM. The value for `COc1ccc2c(c1)C(CN)c1ccccc1C2` (centres undefined) was 1.37 µM. The value for `COc1ccc2c(c1)Cc1ccccc1C2CN` (centres undefined) was 0.0075 µM.
